Columns and labels:
[1] = pharmacokinetics after intravenous administration to rats; conditions: in vivo, rat
Protocol: The above compound is also administered intravenously to rats and found to have a relatively long terminal half life in blood of about 10 hours, with a systemic clearance of about 15 ml/min/kg and a volume of distribution of about 2 l/kg. It appears therefore that the relatively low oral bioavailability of the compound is due to low absorption from the gastrointestinal tract.

[2] = oral bioavailability in the rat; conditions: in vivo, read-out: absolute oral bioavailabilty
Protocol: The oral bioavailability of a model β-peptide according to the invention, β-HAla-β-HLys-β-HAla-β-HLeu-β-HLys-β-HAla-β-HLeu, TFA salt is determined in the rat using standard procedures. The absolute oral bioavailabilty is found to be about 1%. It is to be expected that greater oral bioavailability may be seeen with other compounds of the invention, having substituents selected to improve this property.

half-life ([1]; blood, read-out: terminal half life in blood (converted)): ~10 h | clearance ([1]; read-out: systemic clearance): ~15 mL/min/kg | Vd ([1]; read-out: volume of distribution): ~2 L/kg | bioavailability [2]: ~1%
SMILES: CC(C)C[C@@H](CC(=O)O)NC(=O)C[C@H](C)NC(=O)C[C@H](CCCCN)NC(=O)C[C@H](CC(C)C)NC(=O)C[C@H](C)NC(=O)C[C@H](CCCCN)NC(=O)C[C@H](C)N [β-HAla-β-HLys-β-HAla-β-HLeu-β-HLys-β-HAla-β-HLeu]
